Entries after “also recorded” stand apart in the source; their conditions may differ.
Experiments:
[1] = system: Rat Basophilic Leukemia cells (RBL-2Ho); test: In vitro Rat Basophilic Leukemia cell degranulation test ([3H]-serotonin release); assay type: cell-based; details: 100 μg
From the text: Histamine (or serotonin) release from basophile is an in vitro model for immediate hypersensitivity. The Rat Basophilic Leukemia cell line, RBL-2Ho, is uniform and easy to maintain in culture but is a highly sensitive and reproducible system for testing for degranulation. E. L. Basumian, et al., 11 EUR. J. IMMUNOL. 317 (1981). The physiological stimulus for histamine release involves binding of the antigen to membrane-bound IgE molecules, which triggers an intricate biochemical cascade. Degranulation is induced by non-IgE-mediated stimuli, including various peptides and synthetic polymers, e.g. polylysine. R. P. Siraganian, TRENDS IN PHARM[…] 432 (October 1983). The RBL degranulation test is, therefore, used to screen out those batches of COP-1 which evoke substantial degranulation and thus might elicit undesirable local and/or systemic side effects.
Rat Basophilic Leukemia cells (RBL-2Ho), are loaded with [H^3]-serotonin, followed by incubation with 100 μg of the COP-1 to be tested. Batches of COP-1 which induce non-specific degranulation, release [H^3]-serotonin into the medium. The radioactivity in the medium is counted by a scintillation counter and the total radiolabeled serotonin incorporated into the cells is determined in the pelleted cells. Percent degranulation is calculated as the percentage of serotonin released out of the total incorporated.

HLA-DR4 [2] = target: T1, HLA-DR4 (Homo sapiens, UniProt P01903+P01911, A100K/A169T/F76Y/I96L/K127E/L162R/M171V/N62H/P40V/Q125Y/R42H/S133A/S149N/S66Y/V115G/V209L/W38E); test: Competitive inhibition of biotinylated Copolymer 1 binding to HLA-DR4
HLA-DR2 [3] = target: T2, HLA-DR2 (Homo sapiens, UniProt P01903+P01911); test: Competitive inhibition of biotinylated Copolymer 1 binding to HLA-DR2; details: vs 1.5 μM biotinylated Copolymer 1, pH 5.0, 40 hr 37° C.
[4] = system: T cells specific for the MBP 84-102 antigen; test: Inhibition of MBP-induced T cell proliferation; assay type: cell-based, mouse, human
HLA-DR4 [5] = target: T1, HLA-DR4; test: Binding of biotinylated polypeptides to purified HLA-DR4
[6] = system: human EBV transformed B-cell line; test: Binding of biotinylated polypeptides to living antigen presenting cells (FACS), human; details: 50 μg biotinylated polypeptide, 37° C. for 20 hr; DR7,w11 haplotype
mouse spleen macrophages = test: Binding of biotinylated polypeptides to living antigen presenting cells (FACS), mouse; details: 50 μg biotinylated polypeptide, 37° C. for 20 hr
HLA-DR1 [7] = target: T3, HLA-DR1 (Homo sapiens, UniProt P01903+P01911, A100R/D57E/F55L/F60I/F76Y/I96L/L162R/M171V/P40L/Q125E/R42F/V115G/Y59C); test: Binding of biotinylated polypeptides to purified HLA-DR1
mice = test: Toxicity test in mice (i.v. injection, 48 hour observation); assay type: in vivo
Description: Three batches of copolymer-1 having an average molecular weight of 7.3 and 8.4 KDa (less than 2.5% copolymer-1 species over 40KDa) and 22KDa (more than 5% copolymer-1 species over 40KDa) were subjected to the toxicity test described below. Five mice were used in each experimental group.
Copolymer-1 is dissolved in distilled water to yield a solution of 2 mg/ml of the active ingredient. Each mouse is injected with 0.5 ml of the test solution into the lateral tail vein. […] Observations were recorded 10 minutes, 24 hours and 48 hours post-injection. If, at the end of 48 hours, all the animals were alive and no adverse signs had been observed, then the batch is designated “non-toxic”. If, however, one or more of the mice had died or had shown adverse signs, then the batch is designated “toxic”.

[8] = system: experimental allergic encephalomyelitis (EAE); test: EAE suppression by oral administration; details: Lewis rats fed 5 mg/kg; mean maximal score for the entire group, 0-5 scale
WCB AB line = test: IL-2 secretion from WCB AB line; details: for % Inhibition of IL-2 secretion: 2μM p259
HLA-DR2 [9] = target: T2, HLA-DR2; test: Binding of biotinylated polypeptides to purified HLA-DR2
HLA-DR1 [10] = target: T3, HLA-DR1; test: Competitive inhibition of biotinylated Copolymer 1 binding to HLA-DR1
[11] = system: experimental allergic encephalomyelitis (EAE); test: EAE suppression by injection with incomplete adjuvant; assay type: in vivo, (SJL/J×BALB/c)FI mice
[12] = vs 1.5 μM biotinylated Copolymer 1, pH 5.0, 40 hr 37° C.
[13] = mice, 10 mg/mouse subcutaneously in ICFA, EAE induced 3 weeks later

Copolymer 1 [reference compound]
% Serotonin Release ([1]; Copolymer 1 batch Average M.W. 6,250, <2.5% species over 40 KDa): 12.4% | % Serotonin Release ([1]; Copolymer 1 batch Average M.W. 7,300, <2.5% species over 40 KDa): 21.0% | % Serotonin Release ([1]; Copolymer 1 batch Average M.W. 13,000, >5% species over 40 KDa): 66.9% | % Serotonin Release ([1]; Copolymer 1 batch Average M.W. 14,500, >5% species over 40 KDa): 67.8% | inhibition of binding of biotinylated Copolymer 1 to HLA-DR4 (in words) (HLA-DR4 [2]; unlabeled inhibitor): efficiently inhibited | IC50 (HLA-DR4 [2]; [12]): 10.8 µM | IC50 (HLA-DR2 [3]): 10.1 µM | inhibition of proliferation of T cells exposed to MBP 84-102 antigen (in words) ([4]; polypeptide added with stimulating MBP antigen): significantly inhibited the proliferation | stimulation of proliferation of T cells specific for the 84-102 peptide of MBP (in words) ([4]; polypeptide as antigen): did not stimulate proliferation | binding to HLA-DR4, comparison / order of binding capacity (in words) (HLA-DR4 [5]; detergent-soluble HLA-DR4): better than that of GAL, TGA or GTL; also recorded: TAL>Copolymer 1>>TGA>GTL>GAL | Kd (HLA-DR4 [5]; read-out: Kd DR4, detergent-soluble HLA-DR4, pH 5.0, 40 hr 37° C., from slope of double reciprocal plot): 0.015 µM | % Binding [6]: 96% | MFI (Mean Fluorescence Intensity) [6]: 727 | % Binding (mouse spleen macrophages): 85% | MFI (Mean Fluorescence Intensity) (mouse spleen macrophages): 493 | binding to HLA-DR1, comparison / order of binding capacity (in words) (HLA-DR1 [7]; detergent-soluble HLA-DR1): better than that of GAL, TGA or GTL; also recorded: Copolymer 1>TAL>GTL>TGA>>GAL | Kd (HLA-DR1 [7]; read-out: Kd DR1, detergent-soluble HLA-DR1, pH 5.0, 40 hr 37° C., from slope of double reciprocal plot): 0.074 µM | batch designation toxic / non-toxic (mice; Copolymer 1 batch of 7.3 KDa average molecular weight): non-toxic | batch designation toxic / non-toxic (mice; Copolymer 1 batch of 8.4 KDa average molecular weight): non-toxic | batch designation toxic / non-toxic (mice; Copolymer 1 batch of 22 kDa average molecular weight): toxic | mice died after 48 hours (mice; Copolymer 1 batch of 22 kDa average molecular weight, 0.5 ml of 2 mg/ml into lateral tail vein, five mice): Three of five | MMS ± SD [8]: 0.78 ± 0.45 | % Inhibition of IL-2 secretion (WCB AB line; Cop1 20 μM): 73% | % Inhibition of IL-2 secretion (WCB AB line; Cop1 60 μM): 88% | % Inhibition of IL-2 secretion (WCB AB line; Cop1 100 μM): about 91% | % Inhibition of IL-2 secretion (WCB AB line; Cop1 100 μM, listed as Cop1): 91% | inhibition of p259-induced T cell secretion of IL-2 (in words) (WCB AB line; Copolymer 1 incubated with the p259 peptide): inhibited in a dose-related fashion | binding to HLA-DR2, comparison / order of binding capacity (in words) (HLA-DR2 [9]; detergent-soluble HLA-DR2): bound better than the other polypeptides; also recorded: Copolymer 1>GTL>TAL>GAL>TGA | Kd (HLA-DR2 [9]; read-out: Kd DR2, detergent-soluble HLA-DR2, pH 5.0, 40 hr 37° C., from slope of double reciprocal plot): 0.082 µM | inhibition of binding of biotinylated Copolymer 1 to HLA-DR1 (in words) (HLA-DR1 [10]; unlabeled inhibitor): efficiently inhibited | IC50 (HLA-DR1 [10]; [12]): 8.8 µM | EAE suppression (in words) ([11]; injection in ICFA prior to induction of EAE): greatest EAE suppression | Incidence [11, 13]: 2/11 | Suppression % Incidence [11, 13]: 82.0% | Suppression % MMS [11, 13]: 89.0% | MMS (Mean Maximal Score) ([11]; mice, 10 mg/mouse subcutaneously in ICFA, EAE induced 3 weeks later, 0-5 scale): 0.45
